Holding throughout (assay): biochemical
One assay deals with T1, α-1d adrenoreceptor (Rattus norvegicus, UniProt P23944).
T1 sequence (P23944 1-561): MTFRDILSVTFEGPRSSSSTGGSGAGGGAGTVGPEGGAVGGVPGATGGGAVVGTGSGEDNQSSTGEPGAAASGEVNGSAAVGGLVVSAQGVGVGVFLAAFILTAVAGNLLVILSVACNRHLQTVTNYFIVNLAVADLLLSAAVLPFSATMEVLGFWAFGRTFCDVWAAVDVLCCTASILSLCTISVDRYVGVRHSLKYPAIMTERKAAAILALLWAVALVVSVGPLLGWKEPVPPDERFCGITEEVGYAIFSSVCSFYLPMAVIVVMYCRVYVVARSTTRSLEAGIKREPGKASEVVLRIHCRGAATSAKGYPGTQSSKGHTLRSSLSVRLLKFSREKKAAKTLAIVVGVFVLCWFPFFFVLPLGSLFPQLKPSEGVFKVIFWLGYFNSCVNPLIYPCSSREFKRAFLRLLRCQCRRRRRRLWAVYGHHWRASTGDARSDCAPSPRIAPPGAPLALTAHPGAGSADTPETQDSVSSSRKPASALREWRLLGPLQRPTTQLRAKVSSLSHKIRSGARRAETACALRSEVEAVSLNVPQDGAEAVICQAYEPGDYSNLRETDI
In kind it is binding. Particulars: read-out: Radioligand Binding (Ki, nM) 1d (Rat). The source says:
(§1) The cDNA clones encoding the α-1 adrenoreceptors (α-1a, α-1b, and α-1d) were obtained from TULCO (Triangle Universities Licensing Consortium, Research Triangle Park, NC) and inserted into the eukaryotic expression vector SnaB30. In this vector, expression of the adrenoreceptor gene is under the transcriptional control of an SV40 early promoter. Positive drug selection is provided by a neomycin-resistance gene. Mouse fibroblast cells (LTK) were transfected with the α1 expression plasmids and grown in Dulbecco's modified Eagle's medium (DMEM) containing 10% fetal calf serum and 30 µM G418. Stable G418-resistant parental lines were generated, with successful expression of adrenoreceptor protein monitored using radioligand binding techniques. Stable single cell clones derived from the parental lines were screened in adrenoreceptor binding assays to identify clones having high adrenoreceptor density. Roller bottle cultures of the cloned lines were used to provide cell membranes for subsequent adrenoreceptor binding characterization studies. A cell line containing the SnaB30 vector expressing the human erythropoietin gene served as a negative control.
(§2) For adrenoreceptor binding assays, large scale membrane preparations were utilized in which 6 million cells were seeded into small (450 cm^2) Corning tissue culture roller bottles. 200 mL of DMEM containing 10% fetal calf serum and 300 µM G418 were added to each roller bottle. A 95% air / 5% CO2 gas mixture (sterile) was injected into each roller bottle prior to sealing. The bottles were then incubated at 37 °C on a roller rack for 5 days. Cells were re-fed with fresh medium after 3 days in culture.
(§3) On the fifth day of culture, growth medium was removed from cells grown in roller bottles, and the cells were washed twice with PBS (Sigma, 120 mM NaCl, 2.7 mM KCl, 10 mM Na2HPO4-NaH2PO4, pH = 7.4). Cells were detached from the roller bottles by incubating for 15 minutes at 37 °C in a Tris-EDTA solution (10 mM Tris, 100 mM NaCl, 1 mM EDTA, pH = 7.4). The cell suspension from each roller bottle was decanted into tared centrifuge tubes and kept on ice. An aliquot of each cell suspension was generally taken for cell counting. Cells were centrifuged at 3000 X G for 5 min at 2-4 °C, washed with PBS and recentrifuged. The supernatant was decanted and the pellet weighed to determine the wet weight of cells. Cells were washed a final time in 40 vol 5 mM Tris-HCl, 5 mM EDTA, pH = 7.7, and centrifuged at 40,000 X G for 10 minutes. Cells were homogenized in 10 mL of 50 mM Tris-HCl, 5 mM EDTA (pH = 7.4) and diluted to 40 mL/tube. Homogenates were centrifuged at 40,000 X G for 10 minutes. The supernatant was decanted and the pellets rehomogenized in 50 mM Tris-HCl (pH = 7.4) and centrifuged as before. The supernatant was decanted and the homogenate resuspended in 6.25 volumes (per gram wet weight) of 50 mM Tris-HCl and aliquots of the pooled homogenates frozen in liquid N2 and stored at -70 °C until the time of assay. Rat submaxillary glands were used for α-1A adrenoreceptors and were prepared essentially as described (Michel, A. D., Loury, D. N. and Whiting, R. L., Brit. J. Pharmacol. 98: 83-889 (1989)).
(§4) Receptor binding assays for α-1 adrenoreceptors were performed essentially as described by Greengrass and Bremner (Eur. J. Pharmacol. 55: 323-326 (1979)). […] Radioactivity was determined by standard liquid scintillation techniques. Data were analyzed as previously described (Hancock, A. A., Kyncl, J. J., Martin, Y. C. and DeBernardis, J. F., J. Receptor Res. 8: 23-46 (1988)).

The target of the next assay is T2, α-1b adrenoreceptor (Mesocricetus auratus, UniProt P18841).
T2 sequence (P18841 1-515): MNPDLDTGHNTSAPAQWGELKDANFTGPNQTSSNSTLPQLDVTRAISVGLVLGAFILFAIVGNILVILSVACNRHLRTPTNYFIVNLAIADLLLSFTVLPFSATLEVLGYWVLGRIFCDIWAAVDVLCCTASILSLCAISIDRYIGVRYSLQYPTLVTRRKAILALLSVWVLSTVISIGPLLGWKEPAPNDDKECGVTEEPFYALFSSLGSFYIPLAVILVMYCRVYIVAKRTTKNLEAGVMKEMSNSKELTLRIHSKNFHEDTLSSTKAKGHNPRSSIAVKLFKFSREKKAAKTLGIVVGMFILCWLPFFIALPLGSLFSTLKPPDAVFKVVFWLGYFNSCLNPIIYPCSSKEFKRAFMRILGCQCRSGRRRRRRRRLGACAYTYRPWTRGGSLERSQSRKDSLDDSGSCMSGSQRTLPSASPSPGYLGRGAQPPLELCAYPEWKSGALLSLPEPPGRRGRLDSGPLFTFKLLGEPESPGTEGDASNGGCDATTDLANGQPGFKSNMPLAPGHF
In kind it is binding, hamster. Particulars: read-out: Radioligand Binding (Ki, nM) 1b (Hamster).
Excerpt: as §1, §2, §3, §4

Assay [1] deals with T3, α-1A adrenoreceptor (rat submaxillary gland) (Rattus norvegicus, UniProt P43140).
T3 sequence (P43140 1-466): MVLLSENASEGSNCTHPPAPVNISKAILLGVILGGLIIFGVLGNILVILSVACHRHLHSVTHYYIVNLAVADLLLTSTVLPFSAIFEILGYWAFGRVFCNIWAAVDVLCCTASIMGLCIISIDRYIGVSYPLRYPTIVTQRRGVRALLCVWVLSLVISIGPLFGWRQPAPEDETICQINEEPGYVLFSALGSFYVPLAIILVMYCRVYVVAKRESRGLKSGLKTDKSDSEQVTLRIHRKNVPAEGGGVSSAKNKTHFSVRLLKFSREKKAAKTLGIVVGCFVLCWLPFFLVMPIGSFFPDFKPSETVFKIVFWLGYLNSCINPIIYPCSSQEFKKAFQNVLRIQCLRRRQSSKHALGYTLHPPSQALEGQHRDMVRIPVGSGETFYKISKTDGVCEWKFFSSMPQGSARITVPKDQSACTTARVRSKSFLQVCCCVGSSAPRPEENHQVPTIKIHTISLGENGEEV
The format is binding. Particulars: read-out: Radioligand Binding (Ki, nM) 1A (Rat). How it is done: Additionally, binding affinity against the pharrnacologically defined α-1A adrenoreceptor (rat submaxillary gland) was measured.
as §3, §4

For another assay, the target named is T4, α-1a adrenoreceptor (Bos taurus, UniProt P18130).
T4 sequence (P18130 1-466): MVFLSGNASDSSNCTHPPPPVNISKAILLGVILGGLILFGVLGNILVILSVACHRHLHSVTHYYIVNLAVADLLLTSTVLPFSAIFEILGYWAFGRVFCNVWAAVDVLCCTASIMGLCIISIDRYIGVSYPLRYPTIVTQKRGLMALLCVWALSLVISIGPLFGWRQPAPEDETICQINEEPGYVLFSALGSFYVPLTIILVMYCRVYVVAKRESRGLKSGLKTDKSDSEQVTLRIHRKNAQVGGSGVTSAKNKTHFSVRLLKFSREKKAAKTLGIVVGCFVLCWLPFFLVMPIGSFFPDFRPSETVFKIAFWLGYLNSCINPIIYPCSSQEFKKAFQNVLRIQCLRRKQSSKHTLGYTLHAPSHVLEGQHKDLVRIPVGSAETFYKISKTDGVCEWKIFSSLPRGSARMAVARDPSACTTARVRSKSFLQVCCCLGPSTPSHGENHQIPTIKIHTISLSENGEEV
In kind it is binding, bovine. Particulars: read-out: Radioligand Binding (Ki, nM) 1a (Bovine).
Excerpt: as §1, §2, §3, §4

Setting [2] is: [3H]-prazosin radioligand, cloned receptor in LTK cell membranes.

Counter-ions that a name gives are not always drawn. Like-named read-outs stand apart in the source and are kept apart here.

In the case of “3-[2-((±)-trans-10-Methoxy-1,3,4,4a,5,10b-hexahydro-2H-[1]-benzopyrano[3,4-c]pyrido-3-yl)ethyl]-6,7-dimethoxy-quinazoline-2,4(1H,3H)-dione hydrochloride [Example 91]”, the Ki on α-1d adrenoreceptor (setting [2]) worked out at 0.495 nM; on α-1b adrenoreceptor (setting [2]) it was 1.46 nM; in assay [1] ([3H]-prazosin radioligand, rat submaxillary gland membranes), 0.102 nM; at α-1a adrenoreceptor (setting [2]), 0.066 nM.

Consider `O=c1[nH]c2c(sc3cccnc32)c(=O)n1CCCCN1C[C@@H]2COc3ccccc3[C@H]2C1` (racemic) [Example 71, 3-[4-((±)-trans-1,2,3,3a,4,9b-hexahydro-[1]-benzopyrano[3,4-c]pyrrol-2-yl)butyl]-pyrido[2',3':4,5]thieno[3,2-d]pyrimidine-2,4(1H,3H)-dione hydrochloride], for which the inhibitory constant (Ki) worked out at 0.169 nM on α-1d adrenoreceptor, 0.634 nM at α-1b adrenoreceptor, 0.065 nM in assay [1] and 0.068 nM on α-1a adrenoreceptor.

Turning to `COc1cccc2c1[C@H]1CN(CCCCn3c(=O)[nH]c4c(sc5cccnc54)c3=O)C[C@@H]1CO2` (racemic) [Example 72, 3-[4-((±)-trans-9-Methoxy-1,2,3,3a,4,9b-hexahydro-[1]-benzopyrano[3,4-c]pyrrol-2-yl)butyl]-pyrido[2',3':4,5]thieno[3,2-d]pyrimidine-2,4(1H,3H)-dione dihydrochloride], the Ki at α-1d adrenoreceptor is 0.804 nM; at α-1b adrenoreceptor, 3.54 nM; in assay [1], 0.107 nM; at α-1a adrenoreceptor it was 0.133 nM.

Turning to `COc1cccc2c1[C@@H]1CN(CCCCn3c(=O)[nH]c4c(sc5cccnc54)c3=O)C[C@@H]1CO2` (racemic) [Example 73, 3-[4-((±)-cis-9-Methoxy-1,2,3,3a,4,9b-hexahydro-[1]-benzopyrano[3,4-c]pyrrol-2-yl)butyl]-pyrido[2',3':4,5]thieno[3,2-d]pyrimidine-2,4[1H,3H)-dione dihydrochloride], the inhibitory constant (Ki) turned out to be 0.187 nM on α-1d adrenoreceptor, 1.31 nM at α-1b adrenoreceptor, 0.087 nM in assay [1] and 0.038 nM on α-1a adrenoreceptor.

As to `COc1ccc2c(c1)[C@@H]1CN(CCCCn3c(=O)[nH]c4c(sc5ncccc54)c3=O)C[C@@H]1CO2` (racemic) [Example 75, 3-[4-((±)-cis-8-Methoxy-1,2,3,3a,4,9b-hexahydro-[1]-benzopyrano[3,4-c]pyrrol-2-yl)butyl]-pyrido[3',2':4,5]thieno[3,2-d]pyrimidine-2,4(1H,3H)-dione dihydrochloride], the inhibition constant (Ki) amounted to 18.3 nM on α-1d adrenoreceptor, 52.1 nM on α-1b adrenoreceptor, 5.73 nM in assay [1] and 1.89 nM on α-1a adrenoreceptor.

`COc1ccc2c(c1)[C@@H]1CN(CCCCn3c(=O)[nH]c4c(sc5nccnc54)c3=O)C[C@@H]1CO2` (racemic) [Example 76, 3-[4-((±)-cis-8-Methoxy-1,2,3,3a,4,9b-hexahydro-[1]-benzopyrano[3,4-c]pyrrol-2-yl)butyl]-pyrazino[2',3':4,5]thieno[3,2-d]pyrimidine-2,4(1H,3H)-dione hydrochloride]: the Ki on α-1d adrenoreceptor is 12.9 nM; on α-1b adrenoreceptor, 78.6 nM; in assay [1], 11.7 nM; at α-1a adrenoreceptor, 6.21 nM.

For `COc1ccc2c(c1)[C@@H]1CN(CCCn3c(=O)[nH]c4c(sc5ncccc54)c3=O)C[C@@H]1CO2` (racemic) [Example 77, 3-[3-((±)-cis-8-Methoxy-1,2,3,3a,4,9b-hexahydro-[1]-benzopyrano[3,4-c]pyrrol-2-yl)propyl]-pyrido[3',2':4,5]thieno[3,2-d]pyrimidine-2,4(1H,3H)-dione hydrochloride], the Ki at α-1d adrenoreceptor was 106 nM; in assay [1], 99.7 nM; on α-1a adrenoreceptor, 27 nM.

Consider `COc1ccc2c(c1)[C@@H]1CN(CCn3c(=O)[nH]c4c(sc5ncccc54)c3=O)C[C@@H]1CO2` (racemic) [Example 78, 3-[2-((±)-cis-8-Methoxy-1,2,3,3a,4,9b-hexahydro-[1]-benzopyrano[3,4-c]pyrrol-2-yl)ethyl]-pyrido[3',2':4,5]thieno[3,2-d]pyrimidine-2,4(1H,3H)-dione hydrochloride], for which the Ki on α-1d adrenoreceptor worked out at 0.478 nM; at α-1b adrenoreceptor, 1.88 nM; in assay [1], 0.297 nM; at α-1a adrenoreceptor, 0.122 nM.

The values above are taken from patent EP0942911B1, “BENZOPYRANOPYRROLE AND BENZOPYRANOPYRIDINE ALPHA-1 ADRENERGIC COMPOUNDS” (Abbott Laboratories, priority 1996, dated 1998).
